The source of these data is patent US20120100227A1, “KINASE PROTEIN BINDING INHIBITORS” (University of Florida Research Foundation, priority 2009, published 2012).

Data set [1] deals with different cancer cells, including breast, melanoma, colon and pancreatic cancers. The data set can be described thus: MTT cell viability assay in different cancer cells. Particulars: MTT assay with 24 M inhibitors, M13 the best of all tested. It counts as cell-based, human. On the procedure:
(§1) Cell Viability Assay. The cells were treated with compounds at different concentrations for 24 hours. The 3-(4,5-dimethylthiazol-2-yl)-5-(3-carboxymethoxyphenyl)-2-(4-sulfophenyl)-2H-tetrazolium compound from Promega Viability kit (Madison, Ill.) was added, and the cells were incubated at 37 C for 1-2 hours. The optical density on 96-plate was analyzed with a microplate reader at 490 nm to determine cell viability.
The name of this compound is Monotritylthymidine and it is available and was ordered from Sigma.
(In general: Formazan colour is commonly taken as a measure of viable cells.)

Data set [2] concerns BT474 breast cancer cells. Put plainly: Cell viability (MTT) assay, BT474. As to conditions: different concentrations, 24 hours. It counts as cell-based, human. On the procedure: (§2) Cell lines and culture. BT474 breast carcinoma cells were maintained in RPMI1640 medium supplemented with 10% fetal bovine serum (FBS), 5 μg/ml insulin, and 1 μg/ml penicillin/streptomycin. The MCF-7 cell line was obtained from ATCC and maintained according to the manufacturer's protocol. HCT116p53+/+ and p53−/− colon cancer cells were maintained in McCoy's5A medium with 10% FBS.
as §1

In data set [3] the test system is BT474 breast cancer cells. Put plainly: Detachment assay, BT474. The format is cell-based, human. As to conditions: BT474, 24 hours. On the procedure:
(§3) Detachment Assay. Cells were plated with and without inhibitors for 24 hours, and detached and attached cells were counted in a hemocytometer. We calculated the percent of detachment by dividing the number of detached cells by the total number of cells. The percent of detached cells was calculated in three independent experiments.

The subject of data set [4] is BT474 breast cancer cells. Put plainly: Apoptosis assay (Hoechst 33342), BT474. The format is cell-based, human. As to conditions: BT474, Hoechst 33342 staining of detached cells. As for the experimental part:
(§4) Apoptosis Assay. Detached cells were collected and fixed in 3.7% formaldehyde in 1×PBS solution for the apoptosis assay. Detection of apoptosis was done with Hoechst 33342 staining. The percent of apoptotic cells was calculated as a ratio of apoptotic detached cells divided by the total number of cells in three independent experiments in several fields with the fluorescent microscope. For each experiment 300 cells per treatment were counted.

The test system of data set [5] is MCF-7 breast cancer cells. The data set can be described thus: Viability, detachment and apoptosis, MCF-7. Particulars: MCF-7, compared with BT474. The format is cell-based, human. As for the experimental part:
as §2, §1, §3
Apoptosis Assay. […] The percent of apoptotic cells was calculated as a ratio of apoptotic detached cells divided by the total number of cells in three independent experiments in several fields with the fluorescent microscope. […]

In data set [6] the test system is BT474 cells. The data set can be described thus: Western blotting of BT474 cells (FAK, Y397-FAK, Mdm-2, p53, caspase-8). It counts as cell-based, human. As to conditions: BT474, different doses of M13, Western blot. As for the experimental part:
Western Blotting. Cells or homogenized tumor samples were washed twice with cold 1×PBS and lysed on ice for 30 minutes in a buffer containing: 50 mM Tris-HCl (pH 7.5), 150 mM NaCl, 1% Triton-X, 0.5% NaDOC, 0.1% SDS, 5 mM EDTA, 50 mM NaF, 1 mM NaVO3, 10% glycerol and protease inhibitors: 10 μg/ml leupeptin, 10 μg/ml PMSF and 1 μg/m1 aprotinin. The lysates were cleared by centrifugation at 10,000 rpm for 30 minutes at 4° C. Protein concentrations were determined using a Bio-Rad Kit. The boiled samples were loaded on Ready SDS-10% PAGE gels (Bio Rad, Inc) and used for Western blot analysis with the protein-specific antibody. Immunoblots were developed with chemiluminescence Renaissance reagent (NEN Life Science Products, Inc). For quantification, densitometry of protein bands was performed with NIH Scion Image software.
M13 caused dose-dependent increase of Mdm-2, decrease of FAK and activation of caspase-8 in BT474 cells. We treated BT474 cells with different doses of M13 and performed Western blotting with anti-FAK, Y397-FAK, Mdm-2, p53 and caspase-8 antibodies.

The target of data set [7] is T1, complex of FAK and Mdm-2 in BT474 cells (Homo sapiens, UniProt Q05397).
T1 construct: We immunoprecipitated FAK and found complex of FAK with Mdm-2; endogenous in cells; host or cells: BT474 breast cancer cells
Put plainly: Immunoprecipitation of FAK, complex with Mdm-2. The format is cell-based. Also on record: dose or concentration left out as unconfirmed. On the procedure: Immunoprecipitation. Immunoprecipitation was performed according to the standard protocol. In brief, the pre-cleared lysates with equal amount of protein were incubated with 1 μg of primary antibody and 30 μl A/G agarose beads overnight at 4° C. The precipitates were washed with lysis buffer three times and re-suspended in 2×Laemmli buffer. The boiled samples were used for Western blotting, as described above.
M13 disrupts complex of FAK and Mdm-2 in BT474 cells. We immunoprecipitated FAK and found complex of FAK with Mdm-2, confirming and reproducing data of Lim et al, Molecular Cell, 2008. At […] dose of M13, there was decreased level of FAK and complex with Mdm-2.

In data set [8] the test system is BT474 cells. The data set can be described thus: Tumor growth in nude mice, BT474. It counts as in vivo. As to conditions: BT474 subcutaneous tumors, 30 mg/kg IP daily 5 days/week for 3 weeks. As for the experimental part: (§5) Tumor Growth in Nude Mice in vivo. Female nude mice, 6 weeks old, were purchased from Harlan Laboratory. The mice were maintained in the animal facility and all experiments were performed in compliance with NIH animal-use guidelines and IACUC protocol approved by the UF Animal Care Committee. BT474 cells were injected, 2×10^6 cells/injection subcutaneously. HCT116p53−/− and HCT116p53+/+ cells were injected subcutaneously into the left and right side of the same mice to decrease variations. In preliminary experiment different doses of the compound were introduced into the mice, and 30-50 mg/kg was chosen as optimal, non-toxic doses. The day after injection, the M13 compound was introduced by IP injection at 30 mg/kg dose daily 5 days/week for 3 weeks. Tumor diameters were measured with calipers and tumor volume in mm^3 was calculated using this formula=(width)^2×Length/2. At the end of experiment, tumor weight and volume was determined.
M13 decreased breast tumorigenesis in vivo Breast cancer BT474 cells were implanted into the mice to generate tumors.

Data set [9] has as its system colon cancer HCT116 p53+/+ cells. Put plainly: Cell viability assay, HCT116 p53+/+. The format is cell-based, human. As to conditions: dose-dependent. As for the experimental part: as §2, §1
(§6) To study M13 effect in colon cancer cells and its dependence on p53 pathway, we did similar experiments to BT474 cells with colon cancer HCT116 p53−/− and p53+/+ cells. […] Thus, the in vitro effect of M13 on viability, detachment and apoptosis was p53-independent.

Data set [10] has as its system colon cancer HCT116 p53−/− cells. The data set can be described thus: Cell viability assay, HCT116 p53−/−. It counts as cell-based, human. Particulars: dose-dependent. As for the experimental part: as §2, §1, §6
Data set [11] deals with colon cancer HCT116 p53+/+ cells. The data set can be described thus: Detachment assay, HCT116 p53+/+. The format is cell-based, human. As to conditions: dose-dependent. As for the experimental part: as §3, §6
Data set [12] deals with colon cancer HCT116 p53−/− cells. Put plainly: Detachment assay, HCT116 p53−/−. As to conditions: dose-dependent. The format is cell-based, human. On the procedure: as §3, §6
Data set [13] concerns colon cancer HCT116 p53+/+ cells. Put plainly: Apoptosis assay, HCT116 p53+/+. It counts as cell-based, human. As to conditions: dose-dependent. As for the experimental part:
as §4, §6

In data set [14] the test system is colon cancer HCT116 p53−/− cells. Put plainly: Apoptosis assay, HCT116 p53−/−. It counts as cell-based, human. Particulars: dose-dependent. As for the experimental part: as §4, §6
The test system of another data set is HCT116p53+/+ cells. The data set can be described thus: Tumor growth in nude mice, HCT116 p53+/+. As to conditions: HCT116 p53+/+ subcutaneous tumors, 30 mg/kg IP; no significant difference to p53−/−. The format is in vivo. On the procedure: as §5
(§7) M13 decreased similarly colon tumorigenesis in both HCT116 p53+/+ and p53−/− in vivo. […] Thus, in vivo effect of M13 on tumorigenesis is p53-independent.

The next data set concerns HCT116p53−/− cells. Put plainly: Tumor growth in nude mice, HCT116 p53−/−. It counts as in vivo. As to conditions: HCT116 p53−/− subcutaneous tumors, 30 mg/kg IP; no significant difference to p53+/+. On the procedure:
as §5, §7

Details of data set [15]: species or system nude mice. As to conditions: female, nude, mouse, in vivo. On the procedure: as §5

Each structure is given as a SMILES string.

T1 sequence (Q05397 whole entry, one chain of several): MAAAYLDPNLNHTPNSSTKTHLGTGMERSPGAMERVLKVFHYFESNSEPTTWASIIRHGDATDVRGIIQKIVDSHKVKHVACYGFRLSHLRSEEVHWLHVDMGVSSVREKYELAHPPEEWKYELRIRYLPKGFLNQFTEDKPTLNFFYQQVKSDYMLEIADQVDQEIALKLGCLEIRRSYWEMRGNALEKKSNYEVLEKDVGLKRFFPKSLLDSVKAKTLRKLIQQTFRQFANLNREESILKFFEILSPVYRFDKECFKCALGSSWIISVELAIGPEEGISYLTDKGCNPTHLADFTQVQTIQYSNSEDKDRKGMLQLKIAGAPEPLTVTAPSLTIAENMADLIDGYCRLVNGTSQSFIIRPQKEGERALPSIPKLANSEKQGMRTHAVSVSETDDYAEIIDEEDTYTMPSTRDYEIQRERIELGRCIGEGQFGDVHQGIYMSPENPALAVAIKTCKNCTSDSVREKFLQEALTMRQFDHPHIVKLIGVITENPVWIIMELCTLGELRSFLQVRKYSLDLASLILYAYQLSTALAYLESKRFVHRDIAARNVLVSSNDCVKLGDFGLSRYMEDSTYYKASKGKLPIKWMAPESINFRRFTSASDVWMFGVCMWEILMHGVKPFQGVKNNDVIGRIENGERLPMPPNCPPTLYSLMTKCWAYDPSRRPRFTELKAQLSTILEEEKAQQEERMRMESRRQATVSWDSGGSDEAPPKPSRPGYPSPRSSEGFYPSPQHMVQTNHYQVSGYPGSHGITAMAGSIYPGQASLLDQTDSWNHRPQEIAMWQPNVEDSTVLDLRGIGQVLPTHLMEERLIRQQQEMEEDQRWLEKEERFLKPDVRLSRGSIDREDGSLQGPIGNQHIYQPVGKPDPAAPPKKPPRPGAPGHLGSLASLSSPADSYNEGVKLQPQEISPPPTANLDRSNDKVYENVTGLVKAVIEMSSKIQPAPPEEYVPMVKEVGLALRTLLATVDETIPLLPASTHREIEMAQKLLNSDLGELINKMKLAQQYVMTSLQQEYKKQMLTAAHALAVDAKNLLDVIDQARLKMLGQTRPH

In the case of `Cc1cn(C2CC(O)C(COC(c3ccccc3)(c3ccccc3)c3ccccc3)O2)c(=O)[nH]c1=O` (stereo not shown) [M13, 1-[4-hydroxy-5-[tri(phenyl)methoxymethyl]oxolan-2-yl]-5-methylpyrimidine-2,4-dione], the “viability of cancer cells” value in data set [1] is “significantly decreased viability of most cancer cells”. Also, the viability entry in [2] was “decreased viability of BT474 breast cancer cells in a dose-dependent manner”; in data set [9] it was “equally decreased viability”; in data set [10] it was “equally decreased viability”. Further, the values for the detachment entry in data set [3], in [11] and in [12] were “dose-dependent increase detachment”, “increased detachment” and “increased detachment”, respectively. Moreover, the apoptosis entry in data set [4] was “dose-dependent increase detachment and apoptosis”; in data set [13] it was “increased detachment and apoptosis”; in data set [14] it was “increased detachment and apoptosis”. For the same compound, in [5], the “effect on viability, detachment and apoptosis” value is reported as “the same as with BT474 cells”. In the data set with BT474 cells [6], the FAK levels result is on record as “decreased FAK levels”. Further, in the data set with BT474 cells [6], the Mdm-2 levels result was “increased Mdm-2 levels”. Besides, in the data set on BT474 cells [6], the “activation of caspase-8” value was “caused activation of caspase-8”. Also, in data set [7], the “association of FAK and Mdm-2 (complex)” value is “decreased association of FAK and Mdm-2”. In the data set with BT474 cells [8], the “breast tumorigenesis in vivo” value is “effectively decreased breast tumorigenesis”. In addition, the tumor size result with HCT116p53+/+ cells and in the data set on HCT116p53−/− cells was “decrease of tumor size” each time. The “optimal, non-toxic doses” value in [15] is 30 to 50 mg/kg.
